The NIST ThermoML archive (doi:10.1021/je300941v)
± gives the expanded uncertainty stated by the source.

Assay: xn = mol fraction of the nth substance listed
Conditions: 101 kPa, Liquid, Vibrating tube method

CCCC[N+]1(C)CCCC1.O=S(=O)([N-]S(=O)(=O)C(F)(F)F)C(F)(F)F + CNC=O
mass density [kg/m3]
Conditions | 293.15 K | 298.15 K | 303.15 K | 308.15 K | 313.15 K | 318.15 K | 323.15 K
x1 = 0.0246 | 1055.01 ± 0.28 | 1050.43 ± 0.28 | 1045.86 ± 0.28 | 1041.32 ± 0.27 | 1036.71 ± 0.27 | 1032 ± 0.27 | 1027.24 ± 0.26
x1 = 0.0444 | 1087.36 ± 0.31 | 1082.72 ± 0.3 | 1078.08 ± 0.3 | 1073.48 ± 0.3 | 1068.79 ± 0.29 | 1064.04 ± 0.29 | 1059.25 ± 0.3
x1 = 0.0743 | 1124.18 ± 0.34 | 1119.6 ± 0.33 | 1114.93 ± 0.33 | 1110.11 ± 0.33 | 1105.37 ± 0.32 | 1100.74 ± 0.32 | 1095.89 ± 0.33
x1 = 0.1571 | 1192.03 ± 0.4 | 1187.22 ± 0.4 | 1182.56 ± 0.4 | 1177.83 ± 0.39 | 1173.12 ± 0.39 | 1168.24 ± 0.39 | 1163.34 ± 0.39
x1 = 0.2195 | 1227.49 ± 0.43 | 1222.75 ± 0.43 | 1218 ± 0.43 | 1213.28 ± 0.42 | 1208.51 ± 0.42 | 1203.7 ± 0.42 | 1198.78 ± 0.41
x1 = 0.2768 | 1253.4 ± 0.45 | 1248.66 ± 0.45 | 1243.85 ± 0.45 | 1239.09 ± 0.44 | 1234.35 ± 0.44 | 1229.57 ± 0.44 | 1224.76 ± 0.43
x1 = 0.3721 | 1288.07 ± 0.49 | 1283.27 ± 0.48 | 1278.56 ± 0.48 | 1273.79 ± 0.48 | 1269.04 ± 0.47 | 1264.27 ± 0.47 | 1259.52 ± 0.47
x1 = 0.4755 | 1318.98 ± 0.51 | 1314.25 ± 0.51 | 1309.5 ± 0.51 | 1304.78 ± 0.5 | 1300.03 ± 0.5 | 1295.32 ± 0.5 | 1290.63 ± 0.49
x1 = 0.588 | 1344.35 ± 0.53 | 1339.65 ± 0.53 | 1334.96 ± 0.52 | 1330.34 ± 0.52 | 1325.69 ± 0.52 | 1320.95 ± 0.51 | 1316.2 ± 0.51
x1 = 0.631 | 1352.66 ± 0.54 | 1347.99 ± 0.53 | 1343.33 ± 0.53 | 1338.74 ± 0.52 | 1334.09 ± 0.52 | 1329.42 ± 0.52 | 1324.65 ± 0.51
x1 = 0.7045 | 1364.77 ± 0.54 | 1360 ± 0.54 | 1355.4 ± 0.54 | 1350.82 ± 0.53 | 1346.19 ± 0.53 | 1341.54 ± 0.52 | 1336.77 ± 0.52
x1 = 0.7807 | 1375.58 ± 0.55 | 1370.92 ± 0.55 | 1366.37 ± 0.55 | 1361.76 ± 0.54 | 1357.23 ± 0.54 | 1352.53 ± 0.53 | 1347.89 ± 0.53
x1 = 0.9067 | 1390.15 ± 0.57 | 1385.5 ± 0.56 | 1380.94 ± 0.56 | 1376.4 ± 0.55 | 1371.81 ± 0.55 | 1367.24 ± 0.55 | 1362.53 ± 0.54
